# Read-outs that look alike come from different tables or passages of the source.
# Experiments:
# [1] = tested on: PC-3 prostate cancer cell line; test: SRB assay cell viability, PC-3 prostate cancer cell line; type: cell-based, human; details: PC-3 prostate cancer cell line, Table II prints no unit, μM printed, read-out: SRB assay: 50% inhibition of cancer cell proliferation of sample concentration (IC50) of PC-3 prostate cancer cell line
# [2] = tested on: CCRF-CEM; test: NCI screening platform one-dose single concentration screening, leukemia CCRF-CEM; type: cell-based, human; details: CCRF-CEM
# [3] = tested on: HL-60, TB; test: NCI one-dose screening, leukemia HL-60, TB; type: cell-based, human; details: HL-60(TB)
# [4] = tested on: K562cell line; test: NCI one-dose screening, leukemia K562; type: cell-based, human; details: K562, 10 μM
# [5] = tested on: EKVX; test: NCI one-dose screening, non-small cell lung cancer EKVX; type: cell-based, human; details: EKVX
# [6] = tested on: NCI-H226; test: NCI one-dose screening, non-small cell lung cancer NCI-H226; type: cell-based, human; details: NCI-H226, 10 μM
# [7] = tested on: NCI-H23; test: NCI one-dose screening, non-small cell lung cancer NCI-H23; type: cell-based, human; details: NCI-H23, 10 μM
# [8] = tested on: NCI-H322M; test: NCI one-dose screening, non-small cell lung cancer NCI-H322M; type: cell-based, human
# [9] = tested on: NCI-H460; test: NCI one-dose screening, non-small cell lung cancer NCI-H460; type: cell-based, human; details: NCI-H460, 10 μM
# [10] = tested on: NCI-H522; test: NCI one-dose screening, non-small cell lung cancer NCI-H522; type: cell-based, human; details: NCI-H522, 10 μM
# [11] = tested on: COLO 205; test: NCI one-dose screening, colon cancer COLO 205; type: cell-based, human; details: COLO 205, 10 μM
# [12] = tested on: HCC-2998; test: NCI one-dose screening, colon cancer HCC-2998; type: cell-based, human; details: HCC-2998, 10 μM
# [13] = tested on: HCT-15; test: NCI one-dose screening, colon cancer HCT-15; type: cell-based, human; details: HCT-15, 10 μM
# [14] = tested on: KM12; test: NCI one-dose screening, colon cancer KM12; type: cell-based, human; details: KM12, 10 μM
# [15] = tested on: HT29; test: NCI one-dose screening, colon cancer HT29; type: cell-based, human; details: HT29, 10 μM
# [16] = tested on: SF-268; test: NCI one-dose screening, CNS cancer SF-268; type: cell-based, human; details: SF-268, 10 μM
# [17] = tested on: SF-295; test: NCI one-dose screening, CNS cancer SF-295; type: cell-based, human; details: SF-295, 10 μM
# [18] = tested on: SF-539; test: NCI one-dose screening, CNS cancer SF-539; type: cell-based, human; details: SF-539, 10 μM
# [19] = tested on: SNB-19; test: NCI one-dose screening, CNS cancer SNB-19; type: cell-based, human; details: SNB-19, 10 μM
# [20] = tested on: SNB-75; test: NCI one-dose screening, CNS cancer SNB-75; type: cell-based, human; details: SNB-75, 10 μM
# [21] = tested on: U251; test: NCI one-dose screening, CNS cancer U251; type: cell-based, human; details: U251, 10 μM
# [22] = tested on: LOX IMVI; test: NCI one-dose screening, melanoma LOX IMVI; type: cell-based, human; details: LOX IMVI
# [23] = tested on: UACC-62; test: NCI one-dose screening, melanoma UACC-62; type: cell-based, human; details: UACC-62, 10 μM
# [24] = tested on: UACC-257; test: NCI one-dose screening, melanoma UACC-257; type: cell-based, human; details: UACC-257, 10 μM
# [25] = tested on: SK-MEL-2; test: NCI one-dose screening, melanoma SK-MEL-2; type: cell-based, human; details: SK-MEL-2, 10 μM
# [26] = tested on: SK-MEL-5; test: NCI one-dose screening, melanoma SK-MEL-5; type: cell-based, human; details: SK-MEL-5, 10 μM
# [27] = tested on: IGROV1; test: NCI one-dose screening, ovarian cancer IGROV1; type: cell-based, human; details: IGROV1, 10 μM
# [28] = tested on: OVCAR-4; test: NCI one-dose screening, ovarian cancer OVCAR-4; type: cell-based, human; details: OVCAR-4, 10 μM
# [29] = tested on: OVCAR-5; test: NCI one-dose screening, ovarian cancer OVCAR-5; type: cell-based, human; details: OVCAR-5, 10 μM
# [30] = tested on: 786-O; test: NCI one-dose screening, renal cancer 786-O; type: cell-based, human; details: 786-0, 10 μM
# [31] = tested on: CAKI-1; test: NCI one-dose screening, renal cancer CAKI-1; type: cell-based, human; details: CAKI-1, 10 μM
# [32] = tested on: ACHN; test: NCI one-dose screening, renal cancer ACHN; type: cell-based, human; details: ACHN
# [33] = tested on: UO-31; test: NCI one-dose screening, renal cancer UO-31; type: cell-based, human; details: UO-31, 10 μM
# [34] = tested on: RXF, 393; test: NCI one-dose screening, renal cancer RXF, 393; type: cell-based, human; details: RXF 393, 10 μM
# [35] = tested on: DU145; test: NCI one-dose screening, prostate cancer DU145; type: cell-based, human; details: DU145, 10 μM
# [36] = tested on: PC-3; test: NCI one-dose screening, prostate cancer PC-3; type: cell-based, human; details: PC-3, 10 μM
# [37] = tested on: MCF7; test: NCI one-dose screening, breast cancer MCF7; type: cell-based, human; details: MCF7, 10 μM
# [38] = tested on: HS 578-T; test: NCI one-dose screening, breast cancer HS 578-T; type: cell-based, human
# [39] = tested on: MDA-MB-231/ATCC; test: NCI one-dose screening, breast cancer MDA-MB-231/ATCC; type: cell-based, human; details: MDA-MB-231/ATCC
# [40] = tested on: NCl/ADR-RES; test: NCI one-dose screening, breast cancer NCl/ADR-RES; type: cell-based, human; details: Ovarian cancer, NCI/ADR-RES
# [41] = tested on: T-47D; test: NCI one-dose screening, breast cancer T-47D; type: cell-based, human; details: T-47D
# [42] = tested on: MDA, -MB-435; test: NCI one-dose screening, breast cancer MDA, -MB-435; type: cell-based, human; details: Melanoma, MDA-MB-435, 10 μM
# [43] = tested on: human tumor cell lines; test: NCI one-dose screening, mean, delta and range of growth percent over all cell lines tested; type: cell-based; details: for Growth Percent (10 μM), Delta: Delta over all cell lines tested; for Growth Percent (10 μM), Mean: Mean over all cell lines tested; for Growth Percent (10 μM), Range: Range over all cell lines tested
structure (smiles),measurement,setting,value
CN(C)CCNc1cc2c(c3nsnc13)C(=O)c1ccccc1C2=O [C8],IC50,[1],0.4 µM
same,Growth Percent (10 μM),[2],−12.55%
same,Growth Percent (10 μM),[3],−10.38%
same,Growth Percent (10 μM),[4],−24.44%
same,Growth Percent (10 μM),[5],−25.35%
same,Growth Percent (10 μM),[6],69.78%
same,Growth Percent (10 μM),[7],−43.43%
same,Growth Percent (10 μM),[8],−56.32%
same,Growth Percent (10 μM),[9],−38.31%
same,Growth Percent (10 μM),[10],−91.81%
same,Growth Percent (10 μM),[11],−99.38%
same,Growth Percent (10 μM),[12],−86.18%
same,Growth Percent (10 μM),[13],−60.44%
same,Growth Percent (10 μM),[14],−21.66%
same,Growth Percent (10 μM),[15],−45.50%
same,Growth Percent (10 μM),[16],−14.54%
same,Growth Percent (10 μM),[17],−55.73%
same,Growth Percent (10 μM),[18],−82.05%
same,Growth Percent (10 μM),[19],−77.31%
same,Growth Percent (10 μM),[20],−73.34%
same,Growth Percent (10 μM),[21],−55.42%
same,Growth Percent (10 μM),[22],−90.91%
same,Growth Percent (10 μM),[23],−47.85%
same,Growth Percent (10 μM),[24],−88.80%
same,Growth Percent (10 μM),[25],−66.52%
same,Growth Percent (10 μM),[26],−98.79%
same,Growth Percent (10 μM),[27],−28.40%
same,Growth Percent (10 μM),[28],−71.27%
same,Growth Percent (10 μM),[29],−76.97%
same,Growth Percent (10 μM),[30],−14.05%
same,Growth Percent (10 μM),[31],6.88%
same,Growth Percent (10 μM),[32],−22.86%
same,Growth Percent (10 μM),[33],−28.47%
same,Growth Percent (10 μM),[34],−59.58%
same,Growth Percent (10 μM),[35],−95.45%
same,Growth Percent (10 μM),[36],−18.35%
same,Growth Percent (10 μM),[37],−49.41%
same,Growth Percent (10 μM),[38],4.32%
same,Growth Percent (10 μM),[39],−2.96%
same,Growth Percent (10 μM),[40],−23.20%
same,Growth Percent (10 μM),[41],12.90%
same,Growth Percent (10 μM),[42],−58.82%
same,"Growth Percent (10 μM), Delta",[43],49.51%
same,"Growth Percent (10 μM), Mean",[43],−49.52%
same,"Growth Percent (10 μM), Range",[43],112.33%
"CC(C)Sc1cc2c(c3nsnc13)C(=O)c1ccccc1C2=O [C18, 4-(isopropylthio)anthra[2,1-c][1,2,5] thiadiazol-6,11-dione]",IC50,[1]; Homo sapiens,1.15 µM
same,Growth Percent (10 μM),[2],−45.05%
same,Growth Percent (10 μM),[3],−41.24%
same,Growth Percent (10 μM),[4],−26.17%
same,Growth Percent (10 μM),[5],−6.58%
same,Growth Percent (10 μM),[6],10.21%
same,Growth Percent (10 μM),[7],−42.19%
same,Growth Percent (10 μM),"[8]; Non-small cell lung cancer, NCI-H322M, 10 μM",−0.80%
same,Growth Percent (10 μM),[9],4.92%
same,Growth Percent (10 μM),[10],−59.54%
same,Growth Percent (10 μM),[11],102.47%
same,Growth Percent (10 μM),[12],21.00%
same,Growth Percent (10 μM),[13],15.31%
same,Growth Percent (10 μM),[14],19.33%
same,Growth Percent (10 μM),[15],48.08%
same,Growth Percent (10 μM),[16],7.06%
same,Growth Percent (10 μM),[17],−16.57%
same,Growth Percent (10 μM),[18],−47.01%
same,Growth Percent (10 μM),[19],21.85%
same,Growth Percent (10 μM),[20],9.12%
same,Growth Percent (10 μM),[21],−23.10%
same,Growth Percent (10 μM),[22],−21.59%
same,Growth Percent (10 μM),[23],−57.09%
same,Growth Percent (10 μM),[24],−91.69%
same,Growth Percent (10 μM),[25],−55.62%
same,Growth Percent (10 μM),[26],−99.20%
same,Growth Percent (10 μM),[27],−32.91%
same,Growth Percent (10 μM),[28],−100.00%
same,Growth Percent (10 μM),[29],−27.85%
same,Growth Percent (10 μM),[30],12.37%
same,Growth Percent (10 μM),[31],−5.68%
same,Growth Percent (10 μM),[32],0.80%
same,Growth Percent (10 μM),[33],−28.43%
same,Growth Percent (10 μM),[34],13.64%
same,Growth Percent (10 μM),[35],6.66%
same,Growth Percent (10 μM),[36],−13.43%
same,Growth Percent (10 μM),[37],−68.82%
same,Growth Percent (10 μM),"[38]; Breast cancer, HS 578T, 10 μM",−9.16%
same,Growth Percent (10 μM),[39],−35.94%
same,Growth Percent (10 μM),[40],−24.93%
same,Growth Percent (10 μM),[41],−24.37%
same,Growth Percent (10 μM),[42],−79.28%
same,"Growth Percent (10 μM), Delta",[43],78.36%
same,"Growth Percent (10 μM), Mean",[43],−21.64%
same,"Growth Percent (10 μM), Range",[43],202.47%

# From US8877748B2, “Heterocyclic fused anthraquinone derivatives, manufacturing method and pharmaceutical composition using thereof” (National Defense Medical Center, priority 2012, dated 2014)
